System: participants with SSc-RP
Test: Average severity of weekly RP attacks (VAS 0-10)
Type: in vivo, human
Conditions: for Average Severity (0-10) of weekly RP attacks, Median / Average severity of weekly RP attacks, Change from Baseline, Mean / Average severity of weekly RP attacks, Change from Baseline, Median / Average severity of weekly RP attacks, Percent Change from Baseline, Mean / Average severity of weekly RP attacks, Percent Change from Baseline, Median / Average Severity (0-10) of weekly RP attacks, Mean: all attacks
Description: The absolute change in average severity of weekly RP attacks (VAS 0-10 cm scale) from baseline to the end of each Dosing Period was and will be a secondary outcome variable. The sponsor-developed participant-informed diary will be used to record data. Average severity of weekly RP attacks is defined as the total severity scores of RP attacks divided by total number of RP attacks within the last 7 days of each dosing period. Total severity scores of RP attacks during the last 7 days of screening period divided by the total number of RP attacks will be used as baseline for the analysis of all periods. The variable will be calculated similar to frequency data as before.

[1] = Cilnidipine 10 mg, 1st Baseline RCS subgroup, ITT Part A, last 7 days of dosing period
[2] = Cilnidipine 10 mg, Excluding Outliers, 1st Baseline RCS subgroup, ITT Part A, last 7 days of dosing period
[3] = Cilnidipine 10 mg, ITT Part A, last 7 days of dosing period
[4] = Cilnidipine 10 mg, Excluding Outliers, ITT Part A
[5] = Cilnidipine 10 mg, Excluding Outliers, by Baseline RCS: first subgroup of Table C-8, ITT Part A
[6] = Cilnidipine 10 mg, by Baseline RCS: first subgroup of Table C-7, ITT Part A
[7] = Cilnidipine 10 mg, excluding outliers, ITT Part A
[8] = Cilnidipine 10 mg, excluding outliers, severity 0-10, ITT Part A
[9] = Cilnidipine 10 mg, severity 0-10, ITT Part A
[10] = Cilnidipine 20 mg, 1st Baseline RCS subgroup, ITT Part A, last 7 days of dosing period
[11] = Cilnidipine 20 mg, Excluding Outliers, 1st Baseline RCS subgroup, ITT Part A, last 7 days of dosing period
[12] = Cilnidipine 20 mg, ITT Part A, last 7 days of dosing period
[13] = Cilnidipine 20 mg, Excluding Outliers, ITT Part A
[14] = Cilnidipine 20 mg, Excluding Outliers, by Baseline RCS: first subgroup of Table C-8, ITT Part A
[15] = Cilnidipine 20 mg, by Baseline RCS: first subgroup of Table C-7, ITT Part A
[16] = Cilnidipine 20 mg, excluding outliers, ITT Part A
[17] = Cilnidipine 20 mg, excluding outliers, severity 0-10, ITT Part A
[18] = Cilnidipine 20 mg, severity 0-10, ITT Part A
[19] = Pooled Cilnidipine 10 mg and Cilnidipine 10 mg + Tadalafil 5 mg, 1st Baseline RCS subgroup, ITT Part A, last 7 days of dosing period
[20] = Pooled Cilnidipine 10 mg and Cilnidipine 10 mg + Tadalafil 5 mg, 2nd Baseline RCS subgroup, ITT Part A, last 7 days of dosing period

SMILES: COCCOC(=O)C1=C(C)NC(C)=C(C(=O)OC/C=C/c2ccccc2)C1c1cccc([N+](=O)[O-])c1 (stereo not shown) [Cilnidipine]
- Average Severity of Weekly Symptomatic RP Attacks, Change from Baseline, Mean [1]: 0.28
- Average Severity of Weekly Symptomatic RP Attacks, Change from Baseline, Median [1]: 0.28
- Average Severity of Weekly Symptomatic RP Attacks, Mean [1]: 3.77
- Average Severity of Weekly Symptomatic RP Attacks, Median [1]: 3.77
- Average Severity of Weekly Symptomatic RP Attacks, Percent Change from Baseline, Mean [1]: 8.05%
- Average Severity of Weekly Symptomatic RP Attacks, Percent Change from Baseline, Median [1]: 8.05%
- Average Severity of Weekly Symptomatic RP Attacks, Change from Baseline, Mean [2]: 0.28
- Average Severity of Weekly Symptomatic RP Attacks, Change from Baseline, Median [2]: 0.28
- Average Severity of Weekly Symptomatic RP Attacks, Mean [2]: 3.77
- Average Severity of Weekly Symptomatic RP Attacks, Median [2]: 3.77
- Average Severity of Weekly Symptomatic RP Attacks, Percent Change from Baseline, Mean [2]: 8.05%
- Average Severity of Weekly Symptomatic RP Attacks, Percent Change from Baseline, Median [2]: 8.05%
- Average Severity of Weekly Symptomatic RP Attacks, Percent Change from Baseline, Mean (Cilnidipine 10 mg, ITT Part A): 8.05%
- Average Severity of Weekly Symptomatic RP Attacks, Percent Change from Baseline, Median (Cilnidipine 10 mg, ITT Part A): 8.05%
- Average Severity of Weekly RP Attacks (All Attacks), Change from Baseline, Mean [3]: 0.02
- Average Severity of Weekly RP Attacks (All Attacks), Change from Baseline, Median [3]: 0.02
- Average Severity of Weekly RP Attacks (All Attacks), Mean [3]: 3.05
- Average Severity of Weekly RP Attacks (All Attacks), Median [3]: 3.05
- Average Severity of Weekly RP Attacks (All Attacks), Percent Change from Baseline, Mean [3]: 0.55%
- Average Severity of Weekly RP Attacks (All Attacks), Percent Change from Baseline, Median [3]: 0.55%
- Average Severity (0-10) of weekly RP attacks, Median [4]: 3.05
- Average severity of weekly RP attacks, Change from Baseline, Mean [4]: 0.02
- Average severity of weekly RP attacks, Change from Baseline, Median [4]: 0.02
- Average severity of weekly RP attacks, Percent Change from Baseline, Mean [4]: 0.55%
- Average severity of weekly RP attacks, Percent Change from Baseline, Median [4]: 0.55%
- Average Severity (0-10) of weekly RP attacks, Mean [5]: 3.05
- Average Severity (0-10) of weekly RP attacks, Median [5]: 3.05
- Average severity of weekly RP attacks, Change from Baseline, Mean [5]: 0.02
- Average severity of weekly RP attacks, Change from Baseline, Median [5]: 0.02
- Average severity of weekly RP attacks, Percent Change from Baseline, Mean [5]: 0.55%
- Average severity of weekly RP attacks, Percent Change from Baseline, Median [5]: 0.55%
- Average Severity (0-10) of weekly RP attacks, Mean [6]: 3.05
- Average Severity (0-10) of weekly RP attacks, Median [6]: 3.05
- Average severity of weekly RP attacks, Change from Baseline, Mean [6]: 0.02
- Average severity of weekly RP attacks, Change from Baseline, Median [6]: 0.02
- Average severity of weekly RP attacks, Percent Change from Baseline, Mean [6]: 0.55%
- Average severity of weekly RP attacks, Percent Change from Baseline, Median [6]: 0.55%
- Average Severity of Weekly Symptomatic RP Attacks, Percent Change from Baseline, Mean [7]: 8.05%
- Average Severity of Weekly Symptomatic RP Attacks, Percent Change from Baseline, Median [7]: 8.05%
- Average Severity of Weekly Symptomatic RP Attacks, Change from Baseline, Mean [8]: 0.28
- Average Severity of Weekly Symptomatic RP Attacks, Change from Baseline, Median [8]: 0.28
- Average Severity of Weekly Symptomatic RP Attacks, Mean [8]: 3.77
- Average Severity of Weekly Symptomatic RP Attacks, Median [8]: 3.77
- Average Severity of Weekly Symptomatic RP Attacks, Change from Baseline, Mean [9]: 0.28
- Average Severity of Weekly Symptomatic RP Attacks, Change from Baseline, Median [9]: 0.28
- Average Severity of Weekly Symptomatic RP Attacks, Mean [9]: 3.77
- Average Severity of Weekly Symptomatic RP Attacks, Median [9]: 3.77
- Severity (change) (Cilnidipine 20 mg (n = 3)): −36%
- Average Severity of Weekly Symptomatic RP Attacks, Change from Baseline, Mean [10]: −1.44
- Average Severity of Weekly Symptomatic RP Attacks, Change from Baseline, Median [10]: −1.44
- Average Severity of Weekly Symptomatic RP Attacks, Mean [10]: 2.30
- Average Severity of Weekly Symptomatic RP Attacks, Median [10]: 2.30
- Average Severity of Weekly Symptomatic RP Attacks, Percent Change from Baseline, Mean [10]: −32.85%
- Average Severity of Weekly Symptomatic RP Attacks, Percent Change from Baseline, Median [10]: −32.85%
- Average Severity of Weekly Symptomatic RP Attacks, Change from Baseline, Mean [11]: −1.44
- Average Severity of Weekly Symptomatic RP Attacks, Change from Baseline, Median [11]: −1.44
- Average Severity of Weekly Symptomatic RP Attacks, Mean [11]: 2.30
- Average Severity of Weekly Symptomatic RP Attacks, Median [11]: 2.30
- Average Severity of Weekly Symptomatic RP Attacks, Percent Change from Baseline, Mean [11]: −32.85%
- Average Severity of Weekly Symptomatic RP Attacks, Percent Change from Baseline, Median [11]: −32.85%
- Average Severity of Weekly Symptomatic RP Attacks, Percent Change from Baseline, Mean (Cilnidipine 20 mg, ITT Part A): −32.85%
- Average Severity of Weekly Symptomatic RP Attacks, Percent Change from Baseline, Median (Cilnidipine 20 mg, ITT Part A): −32.85%
- Average Severity of Weekly RP Attacks (All Attacks), Change from Baseline, Mean [12]: −1.07
- Average Severity of Weekly RP Attacks (All Attacks), Change from Baseline, Median [12]: −1.07
- Average Severity of Weekly RP Attacks (All Attacks), Mean [12]: 2.30
- Average Severity of Weekly RP Attacks (All Attacks), Median [12]: 2.30
- Average Severity of Weekly RP Attacks (All Attacks), Percent Change from Baseline, Mean [12]: −27.26%
- Average Severity of Weekly RP Attacks (All Attacks), Percent Change from Baseline, Median [12]: −27.26%
- Average Severity (0-10) of weekly RP attacks, Mean [13]: 2.30
- Average Severity (0-10) of weekly RP attacks, Median [13]: 2.30
- Average severity of weekly RP attacks, Change from Baseline, Mean [13]: −1.07
- Average severity of weekly RP attacks, Change from Baseline, Median [13]: −1.07
- Average severity of weekly RP attacks, Percent Change from Baseline, Mean [13]: −27.26%
- Average severity of weekly RP attacks, Percent Change from Baseline, Median [13]: −27.26%
- Average Severity (0-10) of weekly RP attacks, Mean [14]: 2.30
- Average Severity (0-10) of weekly RP attacks, Median [14]: 2.30
- Average severity of weekly RP attacks, Change from Baseline, Mean [14]: −1.07
- Average severity of weekly RP attacks, Change from Baseline, Median [14]: −1.07
- Average severity of weekly RP attacks, Percent Change from Baseline, Mean [14]: −27.26%
- Average severity of weekly RP attacks, Percent Change from Baseline, Median [14]: −27.26%
- Average Severity (0-10) of weekly RP attacks, Mean [15]: 2.30
- Average Severity (0-10) of weekly RP attacks, Median [15]: 2.30
- Average severity of weekly RP attacks, Change from Baseline, Mean [15]: −1.07
- Average severity of weekly RP attacks, Change from Baseline, Median [15]: −1.07
- Average severity of weekly RP attacks, Percent Change from Baseline, Mean [15]: −27.26%
- Average severity of weekly RP attacks, Percent Change from Baseline, Median [15]: −27.26%
- Average Severity of Weekly Symptomatic RP Attacks, Percent Change from Baseline, Mean [16]: −32.85%
- Average Severity of Weekly Symptomatic RP Attacks, Percent Change from Baseline, Median [16]: −32.85%
- Average Severity of Weekly Symptomatic RP Attacks, Change from Baseline, Mean [17]: −1.44
- Average Severity of Weekly Symptomatic RP Attacks, Change from Baseline, Median [17]: −1.44
- Average Severity of Weekly Symptomatic RP Attacks, Mean [17]: 2.30
- Average Severity of Weekly Symptomatic RP Attacks, Median [17]: 2.30
- Average Severity of Weekly Symptomatic RP Attacks, Change from Baseline, Mean [18]: −1.44
- Average Severity of Weekly Symptomatic RP Attacks, Change from Baseline, Median [18]: −1.44
- Average Severity of Weekly Symptomatic RP Attacks, Mean [18]: 2.30
- Average Severity of Weekly Symptomatic RP Attacks, Median [18]: 2.30
- Average Severity of Weekly Symptomatic RP Attacks, Change from Baseline, Mean [19]: −1.22
- Average Severity of Weekly Symptomatic RP Attacks, Change from Baseline, Median [19]: −1.22
- Average Severity of Weekly Symptomatic RP Attacks, Mean [19]: 3.34
- Average Severity of Weekly Symptomatic RP Attacks, Median [19]: 3.34
- Average Severity of Weekly Symptomatic RP Attacks, Percent Change from Baseline, Mean [19]: −20.18%
- Average Severity of Weekly Symptomatic RP Attacks, Percent Change from Baseline, Median [19]: −20.18%
- Average Severity of Weekly Symptomatic RP Attacks, Change from Baseline, Mean [20]: −1.13
- Average Severity of Weekly Symptomatic RP Attacks, Change from Baseline, Median [20]: −1.13
- Average Severity of Weekly Symptomatic RP Attacks, Mean [20]: 5.23
- Average Severity of Weekly Symptomatic RP Attacks, Median [20]: 5.23
- Average Severity of Weekly Symptomatic RP Attacks, Percent Change from Baseline, Mean [20]: −17.81%
- Average Severity of Weekly Symptomatic RP Attacks, Percent Change from Baseline, Median [20]: −17.81%
- Average Severity of Weekly Symptomatic RP Attacks, Change from Baseline, Mean (Pooled Cilnidipine 10 mg and Cilnidipine 10 mg + Tadalafil 5 mg, Excluding Outliers, 1st Baseline RCS subgroup, ITT Part A, last 7 days of dosing period): −1.22

Reference: US20240358692A1, “TREATMENT OF SCLERODERMA” (Aisa Pharma, Inc., priority 2023, published 2024)
